Assay results taken from ChEMBL document CHEMBL1140726, “Discovery and biological evaluation of 5-aryl-2-furfuramides, potent and selective blockers of the Nav1.8 sodium channel with efficacy in models of neuropathic and inflammatory pain” (J Med Chem, 2008).
One block for each compound: values may come before it.

Key:
[1] = target: T1, Sodium channel protein type 10 subunit alpha (Homo sapiens, UniProt Q9Y5Y9); experiment: Activity at human recombinant Nav 1.8 channel expressed in HEK293 cells in resting state with prepulse voltage of -100 mV assessed as blockade of TTx-resistant sodium current at 1 uM; assay type: cell-based
[2] = target: Sodium channel protein type 3 subunit alpha (Homo sapiens) (UniProt Q9NY46); experiment: Inhibition of human Nav1.3 channel at 1 uM
Sodium channel protein type 3 subunit alpha (Homo sapiens), sequence (Q9NY46 whole entry, looked up): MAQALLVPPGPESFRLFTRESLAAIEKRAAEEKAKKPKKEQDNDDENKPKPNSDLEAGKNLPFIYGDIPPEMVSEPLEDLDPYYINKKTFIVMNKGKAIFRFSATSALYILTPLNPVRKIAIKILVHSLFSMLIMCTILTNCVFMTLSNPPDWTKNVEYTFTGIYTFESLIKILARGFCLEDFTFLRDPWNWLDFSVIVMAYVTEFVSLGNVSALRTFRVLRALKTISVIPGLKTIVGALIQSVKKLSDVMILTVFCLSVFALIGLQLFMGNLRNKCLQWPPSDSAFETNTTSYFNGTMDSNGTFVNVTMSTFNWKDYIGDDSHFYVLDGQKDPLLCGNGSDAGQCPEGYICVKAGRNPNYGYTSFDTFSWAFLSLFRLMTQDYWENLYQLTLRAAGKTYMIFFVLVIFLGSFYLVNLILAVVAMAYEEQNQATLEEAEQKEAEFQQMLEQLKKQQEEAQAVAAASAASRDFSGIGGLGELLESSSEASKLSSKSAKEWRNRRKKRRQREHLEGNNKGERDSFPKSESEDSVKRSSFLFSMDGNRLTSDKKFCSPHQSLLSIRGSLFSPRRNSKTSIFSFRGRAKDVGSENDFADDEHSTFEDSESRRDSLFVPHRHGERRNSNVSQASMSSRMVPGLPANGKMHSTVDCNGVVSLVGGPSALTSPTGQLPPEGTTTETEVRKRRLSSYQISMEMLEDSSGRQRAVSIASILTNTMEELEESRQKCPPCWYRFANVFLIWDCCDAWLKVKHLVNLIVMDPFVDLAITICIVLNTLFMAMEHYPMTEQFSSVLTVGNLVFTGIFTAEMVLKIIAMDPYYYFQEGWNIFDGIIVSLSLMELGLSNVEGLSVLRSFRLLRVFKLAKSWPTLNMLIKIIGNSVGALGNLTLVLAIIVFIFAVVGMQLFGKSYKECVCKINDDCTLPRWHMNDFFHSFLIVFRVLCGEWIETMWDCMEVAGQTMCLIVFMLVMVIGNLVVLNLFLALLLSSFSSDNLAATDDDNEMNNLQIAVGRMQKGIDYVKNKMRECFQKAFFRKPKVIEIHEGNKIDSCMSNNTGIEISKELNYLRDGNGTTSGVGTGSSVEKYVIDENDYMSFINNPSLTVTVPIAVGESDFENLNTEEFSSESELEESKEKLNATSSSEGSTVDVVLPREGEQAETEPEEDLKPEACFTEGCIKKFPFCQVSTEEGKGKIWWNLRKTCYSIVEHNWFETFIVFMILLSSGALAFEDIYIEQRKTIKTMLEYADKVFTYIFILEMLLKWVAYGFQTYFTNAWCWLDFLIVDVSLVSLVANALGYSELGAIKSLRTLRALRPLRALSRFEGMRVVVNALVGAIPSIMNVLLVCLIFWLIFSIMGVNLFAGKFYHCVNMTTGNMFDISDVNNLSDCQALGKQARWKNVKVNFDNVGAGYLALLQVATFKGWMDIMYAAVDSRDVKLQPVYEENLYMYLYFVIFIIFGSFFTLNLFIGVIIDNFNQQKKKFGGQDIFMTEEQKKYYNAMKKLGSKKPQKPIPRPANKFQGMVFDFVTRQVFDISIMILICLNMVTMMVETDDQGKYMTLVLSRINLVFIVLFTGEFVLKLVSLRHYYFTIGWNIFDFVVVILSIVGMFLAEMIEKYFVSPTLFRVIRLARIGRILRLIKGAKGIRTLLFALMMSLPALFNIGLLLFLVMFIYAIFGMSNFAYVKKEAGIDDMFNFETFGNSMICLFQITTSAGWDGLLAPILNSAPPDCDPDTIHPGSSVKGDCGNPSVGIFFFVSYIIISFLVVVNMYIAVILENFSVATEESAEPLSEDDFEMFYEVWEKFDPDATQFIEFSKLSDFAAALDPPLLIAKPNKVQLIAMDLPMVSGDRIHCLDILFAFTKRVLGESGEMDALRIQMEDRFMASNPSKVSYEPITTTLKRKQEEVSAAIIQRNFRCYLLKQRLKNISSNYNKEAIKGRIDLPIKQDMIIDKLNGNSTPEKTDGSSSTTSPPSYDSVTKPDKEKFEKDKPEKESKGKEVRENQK

[3] = Oral bioavailability in Sprague-Dawley rat at 10 mg/kg; assay type: ADME, organism-based; conditions: in vivo
[4] = target: T2, Nav1.5 (sodium channel protein type 5 subunit alpha) (Homo sapiens, UniProt Q14524); experiment: (§1) Inhibition of human Nav1.5 channel at 1 uM; conditions: human
T2 sequence (Q14524 whole entry): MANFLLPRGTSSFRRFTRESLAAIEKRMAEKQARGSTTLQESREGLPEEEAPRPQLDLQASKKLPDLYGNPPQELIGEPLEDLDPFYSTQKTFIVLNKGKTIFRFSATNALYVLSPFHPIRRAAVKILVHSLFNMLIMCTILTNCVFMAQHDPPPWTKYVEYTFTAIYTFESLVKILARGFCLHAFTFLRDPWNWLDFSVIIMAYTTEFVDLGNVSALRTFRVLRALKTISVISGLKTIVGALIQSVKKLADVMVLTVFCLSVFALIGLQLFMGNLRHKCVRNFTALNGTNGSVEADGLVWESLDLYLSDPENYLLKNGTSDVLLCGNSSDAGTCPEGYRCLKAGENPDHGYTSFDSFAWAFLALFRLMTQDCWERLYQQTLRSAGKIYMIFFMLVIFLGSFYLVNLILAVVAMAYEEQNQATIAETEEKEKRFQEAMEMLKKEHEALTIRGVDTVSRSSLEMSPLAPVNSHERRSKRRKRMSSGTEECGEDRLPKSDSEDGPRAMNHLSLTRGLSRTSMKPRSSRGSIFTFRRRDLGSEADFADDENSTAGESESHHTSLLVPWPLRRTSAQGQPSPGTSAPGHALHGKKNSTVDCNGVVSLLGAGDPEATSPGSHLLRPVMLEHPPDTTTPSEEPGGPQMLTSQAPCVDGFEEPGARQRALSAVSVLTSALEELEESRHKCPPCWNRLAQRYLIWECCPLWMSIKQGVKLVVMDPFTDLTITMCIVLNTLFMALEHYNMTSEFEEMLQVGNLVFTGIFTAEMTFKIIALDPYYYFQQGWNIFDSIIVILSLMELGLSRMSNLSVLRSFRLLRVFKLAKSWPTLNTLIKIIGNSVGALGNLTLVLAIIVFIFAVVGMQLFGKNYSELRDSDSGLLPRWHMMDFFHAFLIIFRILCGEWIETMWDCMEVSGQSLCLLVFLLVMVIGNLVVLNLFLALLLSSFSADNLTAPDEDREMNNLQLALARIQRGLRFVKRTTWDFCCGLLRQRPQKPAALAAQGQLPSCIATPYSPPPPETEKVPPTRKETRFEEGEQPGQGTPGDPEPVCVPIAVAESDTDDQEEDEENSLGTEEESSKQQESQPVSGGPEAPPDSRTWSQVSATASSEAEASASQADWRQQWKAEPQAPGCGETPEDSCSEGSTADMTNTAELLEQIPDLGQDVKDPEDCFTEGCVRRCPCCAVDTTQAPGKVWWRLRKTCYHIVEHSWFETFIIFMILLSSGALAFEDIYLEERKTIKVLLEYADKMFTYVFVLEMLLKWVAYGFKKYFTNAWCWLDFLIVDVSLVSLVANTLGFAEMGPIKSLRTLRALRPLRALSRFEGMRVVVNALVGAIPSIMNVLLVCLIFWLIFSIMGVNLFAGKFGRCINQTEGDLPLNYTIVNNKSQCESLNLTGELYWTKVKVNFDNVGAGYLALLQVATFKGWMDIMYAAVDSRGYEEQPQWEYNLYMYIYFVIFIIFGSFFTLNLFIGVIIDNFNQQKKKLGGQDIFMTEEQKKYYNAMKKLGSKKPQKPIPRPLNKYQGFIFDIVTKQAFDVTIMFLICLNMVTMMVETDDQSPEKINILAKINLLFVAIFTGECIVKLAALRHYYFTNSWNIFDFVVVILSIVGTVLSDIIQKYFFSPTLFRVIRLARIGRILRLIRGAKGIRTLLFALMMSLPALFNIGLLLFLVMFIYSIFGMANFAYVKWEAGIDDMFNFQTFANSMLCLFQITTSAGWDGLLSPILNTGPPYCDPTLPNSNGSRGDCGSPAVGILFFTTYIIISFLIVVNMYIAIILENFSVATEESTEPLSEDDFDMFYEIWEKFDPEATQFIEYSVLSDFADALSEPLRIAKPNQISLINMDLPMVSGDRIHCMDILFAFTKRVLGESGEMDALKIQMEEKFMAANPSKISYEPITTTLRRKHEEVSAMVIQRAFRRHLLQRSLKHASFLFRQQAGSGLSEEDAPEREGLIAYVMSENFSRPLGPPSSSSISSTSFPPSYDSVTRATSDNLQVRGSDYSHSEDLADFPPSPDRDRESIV

[5] = target: Voltage-gated inwardly rectifying potassium channel KCNH2 (Homo sapiens, UniProt Q12809); experiment: Inhibition of hERG potassium channel expressed in CHO cells by isotope efflux assay
Voltage-gated inwardly rectifying potassium channel KCNH2, sequence (Q12809 whole entry): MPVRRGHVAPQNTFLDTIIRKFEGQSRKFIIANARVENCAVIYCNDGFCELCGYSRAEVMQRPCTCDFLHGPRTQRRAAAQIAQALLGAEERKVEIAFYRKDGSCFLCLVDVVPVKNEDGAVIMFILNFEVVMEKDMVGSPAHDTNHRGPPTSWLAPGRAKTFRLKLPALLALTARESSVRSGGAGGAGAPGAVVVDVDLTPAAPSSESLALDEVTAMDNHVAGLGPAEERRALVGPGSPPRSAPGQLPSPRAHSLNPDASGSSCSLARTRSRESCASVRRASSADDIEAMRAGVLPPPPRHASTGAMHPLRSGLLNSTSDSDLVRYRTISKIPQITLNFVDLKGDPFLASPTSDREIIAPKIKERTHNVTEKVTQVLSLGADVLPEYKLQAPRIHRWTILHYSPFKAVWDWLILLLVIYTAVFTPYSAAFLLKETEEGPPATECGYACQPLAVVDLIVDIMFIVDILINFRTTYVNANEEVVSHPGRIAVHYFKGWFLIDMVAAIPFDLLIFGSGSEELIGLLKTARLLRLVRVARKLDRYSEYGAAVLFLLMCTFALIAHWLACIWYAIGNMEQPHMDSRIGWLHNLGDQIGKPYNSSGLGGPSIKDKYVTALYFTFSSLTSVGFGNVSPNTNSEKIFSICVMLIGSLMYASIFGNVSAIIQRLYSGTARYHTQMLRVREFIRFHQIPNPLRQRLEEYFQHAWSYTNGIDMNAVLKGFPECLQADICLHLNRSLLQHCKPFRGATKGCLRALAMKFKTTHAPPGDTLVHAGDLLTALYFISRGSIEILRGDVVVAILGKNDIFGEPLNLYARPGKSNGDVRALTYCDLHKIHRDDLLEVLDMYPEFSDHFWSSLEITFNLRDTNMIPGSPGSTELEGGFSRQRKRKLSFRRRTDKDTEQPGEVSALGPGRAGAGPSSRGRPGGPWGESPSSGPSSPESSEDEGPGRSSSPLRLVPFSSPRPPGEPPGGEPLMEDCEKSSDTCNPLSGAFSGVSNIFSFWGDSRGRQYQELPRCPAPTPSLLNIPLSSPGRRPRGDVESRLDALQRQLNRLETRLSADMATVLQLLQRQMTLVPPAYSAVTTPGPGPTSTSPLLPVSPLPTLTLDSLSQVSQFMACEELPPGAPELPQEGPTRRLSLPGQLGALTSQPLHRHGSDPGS

[6] = Activity at rat dorsal root ganglion in inactivated state with prepulse voltage of -40 mV assessed as blockade of TTx-resistant sodium current at 1 uM by whole-cell patch clamp technique; assay type: functional
[7] = target: T1, Sodium channel protein type 10 subunit alpha; experiment: Activity at human recombinant Nav 1.8 channel expressed in HEK293 cells in inactivated state with prepulse voltage of -40 mV assessed as blockade of TTx-resistant sodium current at 1 uM; assay type: cell-based
[8] = Intrinsic clearance in Sprague-Dawley rat microsomes after 1 hr; assay type: ADME, Liver, Microsome
[9] = target: T1, Sodium channel protein type 10 subunit alpha; experiment: Inhibition of human recombinant Nav 1.8 channel expressed in HEK293 cells at 1 uM; assay type: cell-based
[10] = target: T1, Sodium channel protein type 10 subunit alpha; experiment: Activity at human recombinant Nav 1.8 channel expressed in HEK293 cells in inactivated state with prepulse voltage of -40 mV assessed as blockade of TTx-resistant sodium current at 0.1 uM; assay type: cell-based
[11] = target: Sodium channel protein type 2 subunit alpha (Homo sapiens) (UniProt Q99250); experiment: Inhibition of human Nav1.2 channel at 1 uM
[12] = Activity at rat dorsal root ganglion in resting state with prepulse voltage of -100 mV assessed as blockade of TTx-resistant sodium current at 0.3 uM by whole-cell patch clamp technique; assay type: functional
[13] = Aqueous solubility of the compound; assay type: physicochemical
[14] = Activity at rat dorsal root ganglion in inactivated state with prepulse voltage of -40 mV assessed as blockade of TTx-resistant sodium current at 0.3 uM by whole-cell patch clamp technique; assay type: functional
[15] = Activity at rat dorsal root ganglion in resting state with prepulse voltage of -100 mV assessed as blockade of TTx-resistant sodium current at 1 uM by whole-cell patch clamp technique; assay type: functional
[16] = target: T1, Sodium channel protein type 10 subunit alpha; experiment: Activity at human recombinant Nav 1.8 channel expressed in HEK293 cells in resting state with prepulse voltage of -100 mV assessed as blockade of TTx-resistant sodium current at 0.1 uM; assay type: cell-based
[17] = target: T1, Sodium channel protein type 10 subunit alpha; experiment: Inhibition of human recombinant Nav 1.8 channel expressed in HEK293 cells at 0.1 uM; assay type: cell-based
[18] = target: Sodium channel protein type 10 subunit alpha (Mus musculus, UniProt Q6QIY3); experiment: Inhibition of mouse recombinant Nav 1.8 channel expressed in HEK293 cells by isotopic efflux assay; assay type: cell-based
Translocator protein [19] = target: T3, Translocator protein (Homo sapiens, UniProt P30536); experiment: Binding affinity to peripheral benzodiazepine receptor
[20] = target: Sodium channel protein type 3 subunit alpha (Homo sapiens) (UniProt Q9NY46); experiment: Inhibition of human Nav1.3 channel at 10 uM
[21] = target: T1, Sodium channel protein type 10 subunit alpha; experiment: Inhibition of human recombinant Nav 1.8 channel expressed in HEK293 cells at 0.03 uM; assay type: cell-based
[22] = Activity at rat dorsal root ganglion in resting state with prepulse voltage of -100 mV assessed as blockade of TTx-resistant sodium current at 0.1 uM by whole-cell patch clamp technique; assay type: functional
[23] = target: Sodium channel protein type 9 subunit alpha (Homo sapiens) (UniProt Q15858); experiment: Inhibition of human Nav1.7 channel at 10 uM
Rattus norvegicus [24] = experiment: Antinociceptive activity in ip dosed Sprague-Dawley rat assessed as reduction of mechanical allodynia in Bennett model of neuropathic pain; assay type: functional; design: Activity: scale not given: the % may be the effect or the level left
[25] = target: Sodium channel protein type 5 subunit alpha (Homo sapiens, UniProt Q14524); experiment: as §1
[26] = target: T2, Nav1.5 (sodium channel protein type 5 subunit alpha); experiment: Inhibition of human Nav1.5 channel at 10 uM
[27] = target: T1, Sodium channel protein type 10 subunit alpha; experiment: Inhibition of human recombinant Nav 1.8 channel expressed in HEK293 cells at 0.01 uM; assay type: cell-based
[28] = Ratio of drug level in brain to plasma in Sprague-Dawley rat; assay type: ADME
[29] = Clearance in Sprague-Dawley rat plasma; assay type: ADME, organism-based
[30] = target: T1, Sodium channel protein type 10 subunit alpha; experiment: Activity at human recombinant Nav 1.8 channel expressed in HEK293 cells in resting state with prepulse voltage of -100 mV assessed as blockade of TTx-resistant sodium current at 0.03 uM; assay type: cell-based
[31] = target: Sodium channel protein type 2 subunit alpha (Homo sapiens) (UniProt Q99250); experiment: Inhibition of human Nav1.2 channel at 10 uM
[32] = target: T1, Sodium channel protein type 10 subunit alpha; experiment: Activity at human recombinant Nav 1.8 channel expressed in HEK293 cells in inactivated state with prepulse voltage of -40 mV assessed as blockade of TTx-resistant sodium current at 0.03 uM; assay type: cell-based
[33] = Half life in Sprague-Dawley rat; assay type: ADME, organism-based; conditions: in vivo
[34] = target: Sodium channel protein type 3 subunit alpha (Homo sapiens) (UniProt Q9NY46); experiment: Inhibition of human Nav1.3 channel at 3 uM
Rattus norvegicus [35] = experiment: Antinociceptive activity in ip dosed Sprague-Dawley rat assessed as reduction of CFA-induced thermal hyperalgesia; assay type: functional; design: Activity: scale not given: the % may be the effect or the level left
[36] = target: T1, Sodium channel protein type 10 subunit alpha; experiment: Activity at human recombinant Nav 1.8 channel expressed in HEK293 cells in inactivated state with prepulse voltage of -40 mV assessed as blockade of TTx-resistant sodium current at 0.01 uM; assay type: cell-based
[37] = target: T1, Sodium channel protein type 10 subunit alpha; experiment: Activity at human recombinant Nav 1.8 channel expressed in HEK293 cells in resting state with prepulse voltage of -100 mV assessed as blockade of TTx-resistant sodium current at 0.01 uM; assay type: cell-based
[38] = Oral bioavailability in Sprague-Dawley rat; assay type: ADME, organism-based; conditions: in vivo
[39] = Activity at rat dorsal root ganglion in inactivated state with prepulse voltage of -40 mV assessed as blockade of TTx-resistant sodium current at 0.1 uM by whole-cell patch clamp technique; assay type: functional
Rattus norvegicus [40] = experiment: Antinociceptive activity in ip dosed Sprague-Dawley rat assessed as attenuation of mechanical allodynia in chung model of neuropathic pain; assay type: functional
[41] = Cmax in Sprague-Dawley rat at 10 mg/kg, ip; assay type: ADME, organism-based; design: dose 10 mg/kg, route intraperitoneal; conditions: in vivo
Translocator protein [42] = target: T3, Translocator protein; experiment: Binding affinity to peripheral benzodiazepine receptor at 10 uM
[43] = target: T1, Sodium channel protein type 10 subunit alpha; experiment: Inhibition of human recombinant Nav 1.8 channel expressed in HEK293 cells; assay type: cell-based
[44] = Volume of distribution at steady state in Sprague-Dawley rat; assay type: ADME, organism-based; conditions: in vivo, read-out: Vdss
[45] = target: Sodium channel protein type 2 subunit alpha (Homo sapiens) (UniProt Q99250); experiment: Inhibition of human Nav1.2 channel at 3 uM
[46] = Protein binding in Sprague-Dawley rat plasma; assay type: ADME, cell-free; conditions: read-out: PPB (converted)
[47] = target: Sodium channel protein type 9 subunit alpha (Homo sapiens) (UniProt Q15858); experiment: Inhibition of human Nav1.7 channel at 3 uM
[48] = Bioavailability in Sprague-Dawley rat at 10 mg/kg, ip; assay type: ADME, organism-based; conditions: in vivo
[49] = target: T2, Nav1.5 (sodium channel protein type 5 subunit alpha); experiment: Inhibition of human Nav1.5 channel at 3 uM
[50] = Rattus norvegicus, Sprague-Dawley, ip

inhibition [1]: 5% | inhibition [2]: 36% | bioavailability [3]: 67% | inhibition [7]: 75% | microsomal CLint [8]: 220 µL/min/mg | inhibition [9]: 75% | inhibition [10]: 46% | inhibition [11]: 52% | solubility [13]: 250 µg/mL | inhibition [16]: 1% | inhibition [17]: 46% | IC50 [18]: 1900 nM
Structure (SMILES): Cc1cccc(NC(=N)c2ccc(-c3ccc(Cl)cc3)o2)c1.Cl
inhibition at 1 µM [4]: 56% | IC50 [5]: 2100 nM | inhibition at 1 µM [6]: 60% | inhibition at 0.3 µM [12]: 2% | inhibition at 0.3 µM [14]: 45% | inhibition at 1 µM [15]: 10%

IC50 (Translocator protein [19]): > 2000 nM | inhibition [20]: 58% | inhibition [21]: 51% | inhibition [23]: 54% | inhibition [27]: 33% | Kp [28]: 0.35 | clearance [29]: 40 mL/min/kg | inhibition [30]: 29% | inhibition [31]: 57% | inhibition [32]: 51% | microsomal CLint [8]: 260 µL/min/mg | half-life [33]: 1.9 h | inhibition [34]: 47% | inhibition [36]: 33% | inhibition [37]: 14% | bioavailability [38]: 4% | Cmax [41]: 750 ng/mL | inhibition (Translocator protein [42]): > 60% | IC50 [43]: 79 nM | Vd [44]: 1.9 L/kg | inhibition [45]: 32% | fraction unbound [46]: 0.017 | inhibition [47]: 26% | bioavailability [48]: 36% | IC50 [18]: 480 nM
Structure (SMILES): Cc1cccc(NC(=O)c2ccc(-c3ccc(C#N)cc3)o2)c1
inhibition at 0.1 µM [22]: 38% | Activity (Rattus norvegicus [24]): 21% | ED50 (Rattus norvegicus [24]; [50]): > 100 mg/kg | IC50 [25]: > 2000 nM | inhibition at 10 µM [26]: 74% | IC50 [5]: 5800 nM | Activity (Rattus norvegicus [35]): 55% | ED50 (Rattus norvegicus [35]; [50]): 98 mg/kg | inhibition at 0.1 µM [39]: 41% | inhibition at 0.3 µM [12]: 52% | Activity (Rattus norvegicus [40]): 86% | ED50 (Rattus norvegicus [40]; [50]): 38 mg/kg | inhibition at 0.3 µM [14]: 74% | inhibition at 3 µM [49]: 61%
